# According to US6524560B1, “Use of substituted vinyltetrahydronaphthalenes and vinyl-benzotetrahydropyrans as light protection agents” (BASF Aktiengesellschaft, priority 1999, dated 2003):
# Assay: UV absorption (absorption maximum and specific absorbance E 1/1)
# Type: physicochemical
# Conditions: UV absorption maximum
row,Compound,λmax [nm]
1,CCOC(=O)C(=Cc1ccc2c(c1)C(C)(C)CCC2(C)C)C(=O)OCC [Example 6],294
2,CC(=O)C(=Cc1ccc2c(c1)C(C)(C)CCO2)C(C)=O [Example 3],330
3,CC(=C(C#N)C#N)c1ccc2c(c1)C(C)(C)CCC2 [Example 1],346
4,Cc1cc2c(cc1C=C(C#N)C#N)C(C)(C)CCC2(C)C [Example 4],336
5,CCOC(=O)C(=Cc1ccc2c(c1)C(C)(C)CCO2)C(=O)OCC [Example 2],320
6,CC(C)(C)C(=O)/C(C#N)=C/c1ccc2c(c1)C(C)(C)CCC2(C)C [Example 5],330
7,CCOC(=O)C(=Cc1cc2c(cc1C)C(C)(C)CCC2(C)C)C(=O)OCC [Example 7],294

# Same assay, conditions: specific absorbance at λmax
row,Compound,E^1/1
1,CCOC(=O)C(=Cc1ccc2c(c1)C(C)(C)CCC2(C)C)C(=O)OCC [Example 6],411
2,CC(=O)C(=Cc1ccc2c(c1)C(C)(C)CCO2)C(C)=O [Example 3],801
3,CC(=C(C#N)C#N)c1ccc2c(c1)C(C)(C)CCC2 [Example 1],694
4,Cc1cc2c(cc1C=C(C#N)C#N)C(C)(C)CCC2(C)C [Example 4],700
5,CCOC(=O)C(=Cc1ccc2c(c1)C(C)(C)CCO2)C(=O)OCC [Example 2],616
6,CC(C)(C)C(=O)/C(C#N)=C/c1ccc2c(c1)C(C)(C)CCC2(C)C [Example 5],601
7,CCOC(=O)C(=Cc1cc2c(cc1C)C(C)(C)CCC2(C)C)C(=O)OCC [Example 7],594

# Assay: not given
# Conditions: used alone or in combination with UV-B filters; cited from earlier work
row,Compound,photochemical stability
1,"COc1ccc(C(=O)CC(=O)c2ccc(C(C)(C)C)cc2)cc1 [PARSOL 1789, 4-(1,1-dimethylethyl)-4′-methoxydibenzoylmethane]",does not have sufficient photochemical stability

# Assay: Standardized method for determining photostability (sun test)
# Type: physicochemical
# Conditions: 30 min irradiation, 5% strength by weight alcoholic solution on glass plate, 40° C.
# Procedure: Standardized Method for Determining Photostability (Sun Test)
# A 5% strength by weight alcoholic solution of the light protection agent to be tested is applied, using an Eppendorf pipette (20 μl), to the milled area of a small glass plate. Owing to the presence of the alcohol, the solution distributes uniformly on the roughened surface of the glass. The amount applied corresponds to the amount of light protection agent required to achieve an average sun protection factor in suncreams. In the test, four small glass plates are irradiated in each case. […] The small glass plates are cooled slightly during irradiation using a water cooling system located at the base of the sun test apparatus. The temperature inside the sun test apparatus is 40° C. during irradiation. After the samples have been irradiated, they are washed with ethanol in a dark 50 ml graduated flask and measured using a photometer. The blank samples are likewise applied to small glass plates and evaporated at room temperature for 30 minutes. Like the other samples, they are washed off with ethanol and diluted to 100 ml and measured.
row,Compound,Photostability 30 min
1,CCOC(=O)C(=Cc1ccc2c(c1)C(C)(C)CCC2(C)C)C(=O)OCC [Example 6],100%
2,CC(=O)C(=Cc1ccc2c(c1)C(C)(C)CCO2)C(C)=O [Example 3],97%
3,CC(=C(C#N)C#N)c1ccc2c(c1)C(C)(C)CCC2 [Example 1],96%
4,Cc1cc2c(cc1C=C(C#N)C#N)C(C)(C)CCC2(C)C [Example 4],95%
5,CCOC(=O)C(=Cc1ccc2c(c1)C(C)(C)CCO2)C(=O)OCC [Example 2],100%
6,CC(C)(C)C(=O)/C(C#N)=C/c1ccc2c(c1)C(C)(C)CCC2(C)C [Example 5],86%
7,CCOC(=O)C(=Cc1cc2c(cc1OC)C(C)(C)CCC2(C)C)C(=O)OCC [Example 8],100/100%
8,CCOC(=O)C(=Cc1cc2c(cc1C)C(C)(C)CCC2(C)C)C(=O)OCC [Example 7],99%

# Same assay, conditions: 2 h irradiation, 5% strength by weight alcoholic solution on glass plate, 40° C.
row,Compound,Photostability 2 h
1,CCOC(=O)C(=Cc1ccc2c(c1)C(C)(C)CCC2(C)C)C(=O)OCC [Example 6],99%
2,CC(=O)C(=Cc1ccc2c(c1)C(C)(C)CCO2)C(C)=O [Example 3],84%
3,CC(=C(C#N)C#N)c1ccc2c(c1)C(C)(C)CCC2 [Example 1],90%
4,Cc1cc2c(cc1C=C(C#N)C#N)C(C)(C)CCC2(C)C [Example 4],83%
5,CCOC(=O)C(=Cc1ccc2c(c1)C(C)(C)CCO2)C(=O)OCC [Example 2],95%
6,CC(C)(C)C(=O)/C(C#N)=C/c1ccc2c(c1)C(C)(C)CCC2(C)C [Example 5],83%
7,CCOC(=O)C(=Cc1cc2c(cc1OC)C(C)(C)CCC2(C)C)C(=O)OCC [Example 8],100/100%
8,CCOC(=O)C(=Cc1cc2c(cc1C)C(C)(C)CCC2(C)C)C(=O)OCC [Example 7],95%
